Reference: ChEMBL document CHEMBL6096693, “Fragment-to-Lead Medicinal Chemistry Publications in 2023” (J Med Chem, 2025)
pIC50, pKd, pKi: −log10 of the molar value.

Legend:
[1] = molecular target: Bromodomain-containing protein 4 (Homo sapiens, UniProt O60885); experiment: Inhibition of BRD4 BD1 (unknown origin) using biotinylated tetra-acetylated H4 peptide SGRG-K(Ac)-GG-K(Ac)-GLG-K(Ac)-GGA-K(Ac)-RHRK-Biotin as substrate incubated for 60 mins by TR-FRET analysis
[2] = molecular target: T1, ATPase family AAA domain-containing protein 2 (Homo sapiens, UniProt Q6PL18); experiment: Inhibition of recombinant ATAD2 bromodomain (unknown origin) by TR-FRET assay
T1 sequence (Q6PL18 whole entry): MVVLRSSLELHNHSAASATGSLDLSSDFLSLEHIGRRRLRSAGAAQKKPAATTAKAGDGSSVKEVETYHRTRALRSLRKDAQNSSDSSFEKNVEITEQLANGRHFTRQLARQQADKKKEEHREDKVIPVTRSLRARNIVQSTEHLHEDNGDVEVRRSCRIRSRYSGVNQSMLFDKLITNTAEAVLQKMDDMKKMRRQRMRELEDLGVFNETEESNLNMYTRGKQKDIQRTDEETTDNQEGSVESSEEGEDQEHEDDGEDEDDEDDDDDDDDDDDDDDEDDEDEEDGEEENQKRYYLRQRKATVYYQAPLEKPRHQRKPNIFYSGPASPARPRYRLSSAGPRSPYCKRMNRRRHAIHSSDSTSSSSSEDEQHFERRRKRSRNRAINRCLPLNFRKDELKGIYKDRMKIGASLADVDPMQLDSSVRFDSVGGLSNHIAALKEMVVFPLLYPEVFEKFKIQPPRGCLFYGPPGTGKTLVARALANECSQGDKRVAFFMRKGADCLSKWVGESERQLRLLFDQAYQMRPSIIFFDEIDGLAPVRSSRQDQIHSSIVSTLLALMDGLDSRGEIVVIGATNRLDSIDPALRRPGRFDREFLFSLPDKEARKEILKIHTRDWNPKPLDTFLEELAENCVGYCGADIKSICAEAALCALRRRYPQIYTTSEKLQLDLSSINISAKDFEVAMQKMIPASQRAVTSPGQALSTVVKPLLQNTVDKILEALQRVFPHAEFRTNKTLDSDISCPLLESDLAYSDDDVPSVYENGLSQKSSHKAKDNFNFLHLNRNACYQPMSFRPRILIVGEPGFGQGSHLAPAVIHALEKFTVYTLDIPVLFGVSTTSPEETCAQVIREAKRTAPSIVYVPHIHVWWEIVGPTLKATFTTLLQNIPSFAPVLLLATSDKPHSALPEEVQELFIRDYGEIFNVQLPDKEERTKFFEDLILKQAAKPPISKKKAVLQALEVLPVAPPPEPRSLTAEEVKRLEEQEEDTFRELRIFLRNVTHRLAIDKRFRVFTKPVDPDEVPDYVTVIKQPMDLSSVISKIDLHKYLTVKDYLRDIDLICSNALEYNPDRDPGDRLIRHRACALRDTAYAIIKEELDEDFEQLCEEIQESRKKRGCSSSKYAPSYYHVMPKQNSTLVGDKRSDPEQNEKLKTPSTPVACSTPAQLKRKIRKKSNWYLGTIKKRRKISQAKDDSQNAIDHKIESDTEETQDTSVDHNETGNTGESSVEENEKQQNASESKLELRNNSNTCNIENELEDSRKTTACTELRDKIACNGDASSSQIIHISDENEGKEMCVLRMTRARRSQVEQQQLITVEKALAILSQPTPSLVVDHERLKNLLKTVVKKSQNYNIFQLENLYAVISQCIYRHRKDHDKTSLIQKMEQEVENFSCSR

[3] = molecular target: Epidermal growth factor receptor (Homo sapiens, UniProt P00533); experiment: Inhibition of EGFR (unknown origin)
Coagulation factor XII = molecular target: T2, Coagulation factor XII (Homo sapiens, UniProt P00748); experiment: Inhibition of human FXIIa (unknown origin)
T2 sequence (P00748 whole entry): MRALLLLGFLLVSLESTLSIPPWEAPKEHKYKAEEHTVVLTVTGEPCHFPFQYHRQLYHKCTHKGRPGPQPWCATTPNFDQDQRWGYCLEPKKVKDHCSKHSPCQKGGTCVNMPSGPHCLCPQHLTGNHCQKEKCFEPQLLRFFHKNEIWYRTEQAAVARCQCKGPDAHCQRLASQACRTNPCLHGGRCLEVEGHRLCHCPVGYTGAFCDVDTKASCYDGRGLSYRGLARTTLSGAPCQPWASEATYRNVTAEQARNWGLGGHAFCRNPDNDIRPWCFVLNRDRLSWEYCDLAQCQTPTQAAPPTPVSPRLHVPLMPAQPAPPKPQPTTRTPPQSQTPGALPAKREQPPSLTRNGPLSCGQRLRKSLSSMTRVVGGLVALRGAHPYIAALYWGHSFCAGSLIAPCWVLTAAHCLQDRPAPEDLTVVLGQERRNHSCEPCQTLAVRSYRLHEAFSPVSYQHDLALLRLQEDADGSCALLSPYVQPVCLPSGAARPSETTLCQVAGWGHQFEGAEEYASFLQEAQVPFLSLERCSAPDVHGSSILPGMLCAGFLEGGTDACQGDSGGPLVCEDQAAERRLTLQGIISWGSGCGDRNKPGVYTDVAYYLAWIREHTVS

[4] = Inhibition of SARS-CoV2 Mac1 extracted from Escherichia coli Rosetta2 (DE3); parameters: species or system Severe acute respiratory syndrome coronavirus 2
[5] = Binding affinity to Interleukin-1beta (unknown origin) assessed as dissociation constant by SPR analysis; parameters: species or system Homo sapiens
[6] = molecular target: Bifunctional dihydrofolate reductase-thymidylate synthase (Plasmodium falciparum K1, UniProt P13922); experiment: Binding affinity to Plasmodium falciparum DHFR assessed as inhibition constant
Chain of Bifunctional dihydrofolate reductase-thymidylate synthase (P13922 whole entry): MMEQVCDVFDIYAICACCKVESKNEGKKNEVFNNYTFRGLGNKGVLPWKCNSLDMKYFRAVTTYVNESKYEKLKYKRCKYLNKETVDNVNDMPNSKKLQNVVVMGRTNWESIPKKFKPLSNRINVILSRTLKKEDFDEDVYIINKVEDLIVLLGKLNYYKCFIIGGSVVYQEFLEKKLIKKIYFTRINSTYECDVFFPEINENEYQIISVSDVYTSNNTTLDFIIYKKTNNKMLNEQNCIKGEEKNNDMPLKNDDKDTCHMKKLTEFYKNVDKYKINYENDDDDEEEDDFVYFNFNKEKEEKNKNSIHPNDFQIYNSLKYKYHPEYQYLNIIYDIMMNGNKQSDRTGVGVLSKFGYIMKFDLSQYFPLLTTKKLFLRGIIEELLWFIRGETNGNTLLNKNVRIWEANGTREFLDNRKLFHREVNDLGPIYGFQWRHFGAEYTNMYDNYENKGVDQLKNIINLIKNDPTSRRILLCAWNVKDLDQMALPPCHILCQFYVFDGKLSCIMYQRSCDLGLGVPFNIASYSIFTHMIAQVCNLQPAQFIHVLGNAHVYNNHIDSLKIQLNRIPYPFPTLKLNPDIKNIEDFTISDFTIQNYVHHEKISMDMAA

Chain of Epidermal growth factor receptor (P00533 whole entry): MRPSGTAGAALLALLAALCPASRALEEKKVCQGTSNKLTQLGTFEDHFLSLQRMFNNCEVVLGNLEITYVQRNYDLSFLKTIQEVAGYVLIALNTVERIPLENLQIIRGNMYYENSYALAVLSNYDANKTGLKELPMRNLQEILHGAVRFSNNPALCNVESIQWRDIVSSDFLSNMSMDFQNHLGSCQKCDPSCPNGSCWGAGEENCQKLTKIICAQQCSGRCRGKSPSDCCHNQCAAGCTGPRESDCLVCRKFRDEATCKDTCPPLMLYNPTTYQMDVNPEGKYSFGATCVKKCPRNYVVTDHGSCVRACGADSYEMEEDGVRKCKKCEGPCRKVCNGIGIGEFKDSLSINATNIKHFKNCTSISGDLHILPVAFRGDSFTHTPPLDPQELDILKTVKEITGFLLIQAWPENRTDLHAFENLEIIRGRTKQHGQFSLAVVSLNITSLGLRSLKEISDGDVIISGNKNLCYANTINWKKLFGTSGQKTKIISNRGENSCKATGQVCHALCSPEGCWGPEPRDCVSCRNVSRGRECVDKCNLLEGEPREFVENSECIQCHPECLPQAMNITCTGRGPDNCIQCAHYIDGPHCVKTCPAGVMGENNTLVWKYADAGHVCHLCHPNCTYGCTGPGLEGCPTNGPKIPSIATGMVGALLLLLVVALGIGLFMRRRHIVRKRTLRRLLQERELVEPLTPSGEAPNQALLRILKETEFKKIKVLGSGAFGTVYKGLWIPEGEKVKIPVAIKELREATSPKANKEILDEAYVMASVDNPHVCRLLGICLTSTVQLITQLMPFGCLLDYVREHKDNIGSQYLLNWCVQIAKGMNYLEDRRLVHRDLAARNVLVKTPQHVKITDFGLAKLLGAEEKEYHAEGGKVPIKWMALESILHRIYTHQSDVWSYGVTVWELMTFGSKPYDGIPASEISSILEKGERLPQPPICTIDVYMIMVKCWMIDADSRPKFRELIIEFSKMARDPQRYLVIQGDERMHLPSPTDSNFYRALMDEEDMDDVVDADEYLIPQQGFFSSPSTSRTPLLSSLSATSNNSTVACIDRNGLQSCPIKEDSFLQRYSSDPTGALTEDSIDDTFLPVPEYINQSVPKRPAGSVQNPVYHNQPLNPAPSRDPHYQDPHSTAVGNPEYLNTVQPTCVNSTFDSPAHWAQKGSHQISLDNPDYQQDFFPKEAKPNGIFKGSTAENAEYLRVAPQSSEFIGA

Work on CCNC(=O)[C@H](C)NC(=O)Cn1cc(-c2c(C)noc2C)cn1 yielded a pIC50 [1] of 7.30.

O=C(O)c1cc(-c2c[nH]c3ccccc23)on1 gave a pIC50 [1] of 4.01.

In the case of Cn1c(=O)c2[nH]cnc2n(C)c1=O [THEOPHYLLINE ANHYDROUS], the pIC50 [2] was 3.49.

Molecule C=CC(=O)Nc1cc(-c2cn(C)c3ccccc23)ncn1 has a pIC50 [3] of 6.05.

Cc1cc(C)on1 gave a pIC50 [1] of 4.08.

Molecule O=C(Nc1ccc(C(=O)N[C@H]2c3cccc(O)c3C[C@H]2C(=O)O)cc1)NC1CC1 has a pIC50 (Coagulation factor XII) of 3.41 and a pIC50 [4] of less than 3.74.

For Cc1ccc2c(c1)NC(=O)[C@@]2(c1cn[nH]c1)c1cc(-c2ccc(C(=O)O)cc2C(=O)O)ccc1O, the pKd [5] was 5.96.

Molecule O=C1Nc2cc(C(F)(F)F)ccc2C1(O)c1cc(Cl)ccc1O (configuration not stated) has a pKd [5] of 3.28.

In the case of O=C(O)c1cccc(-c2ccncc2)c1, the pKi [6] was less than 3.30.

Molecule Cn1cc(-c2onc(C(=O)O)c2CO)c2ccccc21 has a pIC50 [1] of 6.04.

C=CC(=O)Nc1ccccn1 gave a pIC50 [3] of less than 3.30.
